For one series, the system named is CTLA-4. The series is described as follows: Percent CTLA-4+/CD8+ T-cells in splenocytes after a single dose, melanoma murine model. It is filed as in vivo, mice. Here is the method: The pharmacodynamic (PD) effects of a single IV dose of Compound B in a melanoma murine model were evaluated. B16F10 melanoma cells were grown in RPMI 1640 media supplemented with 10% FBS and antibiotics (penicillin/streptomycin) using T75 flasks. When cells reached 70-80% confluency, they were treated with 3 ml of 0.25% Trypsin/EDTA. Afterward, detached cells were harvested. A single-cell suspension was prepared in PBS. An IV injection of 10^5 cells in mice marked day −3 of the experiment.
Animals were housed four per cage, and had access to food and water ad libitum. Compound B was dissolved in sterile PBS, and pH was adjusted to approximately 7.5. Sterile PBS served as control.
Three days after the IV injection of melanoma cells, animals in the baseline group (n=3) were sacrificed and their spleens were collected for KLRG-1, CTLA-4, and PD-1 analysis. At each predetermined time-point (24, 48, and 120 hours after dosing) three animals from each group were sacrificed for splenocyte analysis of KLRG-1, CTLA-4, and PD-1 expression levels, and expression levels were compared to baseline.
Spleens collected for splenocyte analysis were prepared into a single-cell suspension for cellular phenotyping by flow cytometry. Cells were stained and gated for CD8. Percent KLRG-1+, CTLA-4+, and PD-1+ CD8+ T-cells were evaluated using flow cytometry.

Series [1] deals with B16F10 melanoma cells. The series is described as follows: Lung metastasis and survival after IV B16F10 melanoma cells (Example 16). In kind it is in vivo, C57BL6 mice. The following applies: 4 mg/mouse orally daily for two weeks. Here is the method:
C57BL6 mice received 10^5 B16F10 melanoma cells via IV injection at day 0. At day 7, mice were randomized into one of two groups (n=6 per group): an untreated group and a group treated orally with Compound B at 4 mg/mouse daily for two weeks.
At the end of the first week of treatment (14 days after tumor injection), three mice from each group were euthanized, and lung metastasis was counted (FIG. 11A). By the end of the second week of treatment (21 days after tumor injection), two out of the three remaining control mice had died. The remaining control mouse and the three remaining Compound B-treated mice were euthanized, and lung metastasis assessed (FIG. 111B).

Series [2] concerns B16F10 melanoma cells. The series is described as follows: Dose-dependent tumor regression in established B16F10 tumors (Example 15). It is filed as in vivo, C57BL6 mice. The method, then: C57BL6 mice received 10^5 B16F10 melanoma cells via SC injection at day 0. Tumor growth was monitored until tumor size reached 200 to 300 mm^3, at which time the mouse was randomized into one of the treatment groups or the control group. Mice were dosed orally until the end of the study.

The test system of another series is melanoma cells. The series is described as follows: Tumor growth inhibition and overall survival, two doses of Compound B (Example 14). It is filed as in vivo, mice. Here is the method: This study was designed to evaluate the effects of two different doses of Compound B on tumor growth and the overall survival of animals implanted SC with 10^5 melanoma cells. The study was carried out in accordance with the study described in Example 13, except that mice received either placebo, 0.4 mg/mouse PO QD of Compound B for seven days starting at day 7 after tumor implantation, or 4 mg/mouse PO QD of Compound B for seven days starting at day 7 after tumor implantation.

A short description of series [3]: Body weight change in murine melanoma model (Example 13). It is filed as in vivo, mice. The following applies: Compound B 4 mg/mouse PO QD x7, Compound C 2.5 mg/mouse IV QD. Here is the method: Animals were housed four per cage and had access to food and water ad libitum. Compound B was dissolved in sterile PBS, and pH was adjusted to approximately 7.5. Compound C was first dissolved in DMSO before diluting in sterile PBS. Sterile PBS was used as a control. Compound B was dosed at 4 mg/mouse PO QD. This dose was expected to result in an exposure equivalent to a 1 mg/mouse IV dose. Compound C was dosed at 2.5 mg/mouse IV.
B16F10 melanoma cells were grown in RPMI 1640 media supplemented with 10% FBS and antibiotics (penicillin/streptomycin) using T75 flasks. When cells reached 70-80% confluency, they were treated with 3 ml of 0.25% trypsin/EDTA. Detached cells were harvested. A single-cell suspension was prepared in PBS. A dorsal SC injection of 10^5 cells in mice marked day 0 of the experiment. Animals were monitored daily, and tumors were measured twice a week.

These results are taken from US20250177340A1, “Tartaric Acid Analogs and Uses Thereof” (Lapix Therapeutics, Inc., priority 2021, published 2025).

For the compound `O=C(O)[C@H](O)[C@@H](O)C(=O)OCCCc1ccccc1` [Compound B, (2R,3R)-2,3-dihydroxy-4-oxo-4-(3-phenylpropoxy)butanoic acid], the “CTLA-4+/CD8+ T-cells, mean” value in the series on CTLA-4 (0.14 mg/mouse IV single dose, 24 h) worked out at 9.8%; with CTLA-4 (0.14 mg/mouse IV single dose, 48 h) it was 5.3%; in the series with CTLA-4 (0.14 mg/mouse IV single dose, 120 h) it was 11.9%; in the series on CTLA-4 (0.7 mg/mouse IV single dose, 24 h) it was 8.5%; with CTLA-4 (0.7 mg/mouse IV single dose, 48 h), 5.7%; in the series on CTLA-4 (0.7 mg/mouse IV single dose, 120 h) it was 12.5%. The “CTLA-4+/CD8+ T-cells, mean” value came out at 7.4% in the series on CTLA-4 (1.4 mg/mouse IV single dose, 24 h); 5.6% in the series on CTLA-4 (1.4 mg/mouse IV single dose, 48 h); 11.7% in the series on CTLA-4 (1.4 mg/mouse IV single dose, 120 h). Further, in the series on CTLA-4 (single IV dose (0.14, 0.7, 1.4 mg), 48 h), the “decrease from baseline in CTLA-4+/CD8+ T-cells” value is reported as “approximately 35%”. Further, the “reduction in CTLA-4+/CD8+ T-cells compared to same time point in control group” value in the series with CTLA-4 (single IV injection, 48 h) was “approximately 38%”. Further, the lung metastasis entry in the series with B16F10 melanoma cells [1] is listed as “controlled (e.g., prevented) metastasis”. Further, the “survival compared to untreated mice” value in the series on B16F10 melanoma cells [1] is on record as “improved survival”. Moreover, the “day by which all animals died of disease” value in the series on B16F10 melanoma cells [2] (0.1 mg PO, tumors 200 to 300 mm^3 at start) was at most 20 days. The “day by which animals died” value with B16F10 melanoma cells [2] (0.4 mg PO) is at most 30 days. In the series with B16F10 melanoma cells [2] (0.4 mg PO), the “tumor progression versus low-dose group and untreated mice” value is given as “progressed more slowly”. Further, the results for the tumor growth entry in the series with B16F10 melanoma cells [2] (1 mg PO) and in the series on B16F10 melanoma cells [2] (4 mg PO) were “Tumor growth control was observed early on” and “Tumor regression was observed”, respectively. Besides, the “efficacy of low dose relative to high-dose (4 mg) treatment” value with melanoma cells (0.4 mg PO) stood at 70%. The survival entry in the series on melanoma cells (0.4 mg and 4 mg/mouse PO QD groups) was “significant increase in survival”. Moreover, the figures for the “mice tumor-free for at least 10 days after treatment stopped” value in the series on melanoma cells (0.4 mg/mouse PO QD for seven days) and with melanoma cells (4 mg/mouse PO QD for seven days) were 70% and 90%, respectively. Further, in series [3], the “greatest measured weight loss” value came out at 3%.

Regarding `O=C(O)[C@H](O)[C@@H](O)C(=O)OCCC(c1ccccc1)c1ccccc1` [Compound C, (2R,3R)-4-(3,3-diphenylpropoxy)-2,3-dihydroxy-4-oxobutanoic acid], the “greatest measured weight loss” value in series [3] was 1.5%.
